Measured values reported in patent US20060270640A1, “Method of preventing, medicating, and/or treating hypocalcemia of domestic mammal” (Mercian Corporation, priority 2004, published 2006).

Tests used:
[1] = Dose-response test of 1,25-(OH)2D3: Ca/Cre, iP/Cre, Mg/Cre in urine (Example 3); type: in vivo, cow; conditions: for iP/Cre in urine: vs immediately before administration
Method: (§1) Hereinafter, the present invention will further be described with reference to Examples and Comparative Example. However, the present invention is not intended to be limited to them by any means. In the examples described below, a 1,25-(OH)2D3 concentration in plasma was determined using a radioimmunoassay kit (1,25-(OH)2D RIA kit, Immunodiagnostic Systems Limited, UK). The Ca concentrations, inorganic phosphorus (iP) concentrations, and magnesium (Mg) concentrations in plasma and urine were determined by orthocresolphthalein complexone (O-CPC), molybdenum (Mo), and xylidyl blue methods, respectively. A creatinine concentration in urine was determined by a Jaffe method. Calcium (Ca), inorganic phosphorus (iP), and magnesium (Mg) concentrations in urine were indicated in the ratios relative to creatinine (Cre) (Ca/Cre, iP/Cre, and Mg/Cre, respectively).
(§2) The dose-response test of 1,25-(OH)2D3 by an intravaginal administration route was performed with five 3 to 9-year-old ovariectomized Holstein cows having body weights of 616 to 804 kg as test animals.
(§3) The cows were hitched to a partition after and provided with 5.3 kg of timothy hay, 0.18 kg of alfalfa hay, 0.71 kg of beet pulp pellet, and 1.7 kg of commercially-available grain mix on a daily basis. The cows were measured on a DM basis and freely provided with water. A daily mineral intake was set to 48.4 g for calcium, 20.2 g of inorganic phosphorus, and 12.7 g for magnesium, which sufficiently exceeded the NRC recommendation.
(§4) To the five cows, 1,25-(OH)2D3 was respectively administered at 0.125, 0.25, 0.5, and 1.0 μg/kg (by body weight) as an intravaginal dose level and 1.0 μg/kg (by body weight) as an intravenous injection dose level at an interval of 2 weeks or more according to a 5×5 Latin square design.
(§5) The 1,25-(OH)2D3 (manufactured by Mercian Corporation) used was in the form of crystalline powder, which was dissolved in 99% ethanol at 200 μg/mL and cryopreserved at −20° C. until use.
(§6) A drug composed of 5 mL of 20% ethanol solution containing 1,25-(OH)2D3 at 0.125, 0.25, 0.5, or 1.0 μg/kg (by body weight) was administered to a vaginal lumen using a Split Universal Sheath (IMV Int. CO., France) by a rectovaginal cavity method. The vulva was then bonded with an adhesive in order to prevent the 1,25-(OH)2D3 solution from being unintentionally excreted from the vaginal lumen. Intravenous administration was performed using a cannula (14-ga cannula for animals, manufactured by Nipro Medical Industries Ltd.) mounted in advance for the collection of a blood sample.
Urine were collected by urethral catheterization simultaneously with the collection of blood samples from the cows that underwent the intravaginal administration of 1,25-(OH)2D3 at 0.125 and 1.0 μg/kg (by body weight) and the intravenous injection of 1,25-(OH)2D3at 1.0 μg/kg (by body weight), to determine creatinine, calcium, inorganic phosphorus, and magnesium concentrations in the urine. Plasma and urine samples were cryopreserved at −20° C. until analysis.

[2] = Dose-response test of 1,25-(OH)2D3, intravaginal vs intravenous: calcium, inorganic phosphorus, magnesium in plasma (Example 3); type: in vivo, cow
Method: as §1, §2, §3, §4, §5, §6
A heparinized blood sample was collected through the cannula immediately before the administration of 1,25-(OH)2D3 (0 hour) and at 2, 4, 6, 12, 24, 48, 72, 96, and 120 hours after administration.
Next, the blood was immediately centrifuged, and 1,25-(OH)2D3, calcium, inorganic phosphorus, and magnesium concentrations in plasma were determined.

[3] = oral administration, high dose; cited from earlier work
[4] = 0 hour, intravaginal 0.125 μg/kg
[5] = 0 hour, intravaginal 0.25 μg/kg
[6] = 24 hours after intravaginal 0.125 μg/kg
[7] = 24 hours after intravaginal 1.0 μg/kg

C=C1/C(=C\C=C2/CCC[C@]3(C)[C@@H]([C@H](C)CCCC(C)(C)O)CC[C@@H]23)C[C@@H](O)C[C@@H]1O [1,25-(OH)2D3, 1,25-dihydroxyvitamin D3]
Ca/Cre, iP/Cre and Mg/Cre in urine ([1]; intravaginal 0.125 μg/kg): no influence
Ca/Cre in urine ([1]; via the vagina 1.0 μg/kg, at 24 hours after administration): significantly rose
Mg/Cre in urine ([1]; via the vagina 1.0 μg/kg, from 6 hours to 12 hours after administration): significantly high
iP/Cre in urine ([1]; via the vagina 1.0 μg/kg, from 48 hours to 120 hours): significantly high
Mg/Cre in urine ([1]; via the vein 1.0 μg/kg, at 6 hours after administration): significantly high
Ca/Cre in urine ([1]; via the vein 1.0 μg/kg, at 12 hours and 24 hours after administration): significantly rose
iP/Cre in urine ([1]; via the vein 1.0 μg/kg, from 72 hours to 120 hours): significantly high
calcium concentration in plasma [2, 4]: 8.9 ± 0.5 mg/dL
inorganic phosphorus concentration in plasma [2, 4]: 5.3 ± 1.0 mg/dL
magnesium concentration in plasma [2, 4]: 2.2 ± 0.2 mg/dL
calcium concentration in plasma [2, 5]: 8.9 ± 0.4 mg/dL
inorganic phosphorus level in plasma [2, 5]: 4.7 ± 0.6 mg/dL
magnesium concentration in plasma [2, 5]: 2.0 ± 0.2 mg/dL
calcium concentration in plasma ([2]; 0 hour, intravaginal 0.5 μg/kg): 8.9 ± 0.2 mg/dL
inorganic phosphorus concentration in plasma ([2]; 0 hour, intravaginal 0.5 μg/kg): 5.3 ± 0.6 mg/dL
magnesium concentration in plasma ([2]; 0 hour, intravaginal 0.5 μg/kg): 2.2 ± 0.2 mg/dL
calcium concentration in plasma ([2]; 0 hour, intravaginal 1.0 μg/kg): 8.8 ± 0.7 mg/dL
inorganic phosphorus concentration in plasma ([2]; 0 hour, intravaginal 1.0 μg/kg): 5.4 ± 1.3 mg/dL
magnesium concentration in plasma ([2]; 0 hour, intravaginal 1.0 μg/kg): 2.1 ± 0.1 mg/dL
calcium concentration in plasma ([2]; 0 hour, intravenous 1.0 μg/kg): 8.8 ± 0.5 mg/dL
inorganic phosphorus concentration in plasma ([2]; 0 hour, intravenous 1.0 μg/kg): 5.2 ± 1.3 mg/dL
magnesium concentration in plasma ([2]; 0 hour, intravenous 1.0 μg/kg): 2.2 ± 0.2 mg/dL
inorganic phosphorus concentration in plasma ([2]; 12 hour after intravenous 1.0 μg/kg): 7.2 ± 0.8 mg/dL
inorganic phosphorus level in plasma ([2]; 12 hours (start of 12 to 120 hours) after intravaginal 0.25 μg/kg): 6.7 ± 0.9 mg/dL
magnesium concentration in plasma ([2]; 12 hours after intravaginal 0.5 μg/kg): 1.9 ± 0.2 mg/dL
inorganic phosphorus concentration in plasma [2, 6]: 7.7 ± 0.8 mg/dL
magnesium concentration in plasma [2, 6]: 1.9 ± 0.1 mg/dL
magnesium concentration in plasma ([2]; 24 hours after intravaginal 0.25 μg/kg): 1.8 ± 0.1 mg/dL
inorganic phosphorus concentration in plasma ([2]; 24 hours after intravaginal 0.5 μg/kg): 7.9 ± 0.9 mg/dL
inorganic phosphorus concentration in plasma [2, 7]: 8.0 ± 1.2 mg/dL
magnesium concentration in plasma [2, 7]: 1.8 ± 0.2 mg/dL
magnesium concentration in plasma ([2]; 24 hours after intravenous 1.0 μg/kg): 1.9 ± 0.3 mg/dL
inorganic phosphorus concentration in plasma, peak ([2]; 24 hours after intravenous 1.0 μg/kg (start of peak period)): 9.1 ± 1.6 mg/dL
calcium concentration in plasma, peak ([2]; 48 hours after intravaginal 0.125 μg/kg, significantly high 12 to 120 hours): 11.1 ± 0.9 mg/dL
calcium concentration in plasma, peak ([2]; 48 hours after intravaginal 0.25 μg/kg, significantly high 12 to 120 hours): 11.2 ± 0.7 mg/dL
calcium concentration in plasma, peak ([2]; 48 hours after intravaginal 0.5 μg/kg, significantly high 6 to 120 hours): 11.5 ± 0.6 mg/dL
calcium concentration in plasma, peak ([2]; 48 hours after intravaginal 1.0 μg/kg, significantly high 6 to 120 hours): 12.0 ± 0.6 mg/dL
inorganic phosphorus level in plasma ([2]; 120 hours (end of 12 to 120 hours) after intravaginal 0.25 μg/kg): 8.6 ± 1.2 mg/dL
magnesium concentration in plasma ([2]; 120 hours after intravaginal 0.125 μg/kg): 1.8 ± 0.3 mg/dL
magnesium concentration in plasma ([2]; 120 hours after intravaginal 0.25 μg/kg): 1.7 ± 0.2 mg/dL
magnesium concentration in plasma ([2]; 120 hours after intravaginal 0.5 μg/kg): 1.7 ± 0.2 mg/dL
magnesium concentration in plasma ([2]; 120 hours after intravaginal 1.0 μg/kg): 1.7 ± 0.4 mg/dL
magnesium concentration in plasma ([2]; 120 hours after intravenous 1.0 μg/kg): 1.7 ± 0.2 mg/dL
inorganic phosphorus concentration in plasma, peak ([2]; end of peak period 'from 24 hours to 12 hours' after intravenous 1.0 μg/kg): 9.0 ± 1.2 mg/dL
dose-relationship of changes in calcium, inorganic phosphorus and magnesium concentrations in plasma ([2]; intravaginal, four doses 0.125-1.0 μg/kg): no dose-relationship
calcium concentration in plasma, peak ([2]; intravenous 1.0 μg/kg): 11.5 ± 1.2 mg/dL
proportional rise in the AUC in serum with an increase in a dose [3]: not observed
